Measurements as given in patent US9187487B2, “Azaindole derivatives as tyrosine kinase inhibitors” (PRINCIPIA BIOPHARMA, INC., priority 2011, dated 2015).

Target: recombinant JAK3 (catalytic domain, aa 781-1124) (Homo sapiens (Human), UniProt P52333)
Experiment: JAK3 Caliper Peptide Phosphorylation Assay
Format: biochemical
Conditions: fluorescently labeled Srctide substrate 1 uM; ATP at 1×Km (2 uM); 2 hours at 25° C.
Procedure: JAK3 Caliper Peptide Phosphorylation Assay
Phosphorylation of the appropriate peptide substrate (fluorescently labeled Srctide) by recombinant JAK3 (catalytic domain, aa 781-1124) was measured in the presence and absence of different concentrations of test compounds. Test compound, enzyme, fluorescently labeled substrate, and cofactors (ATP and Mg^2+) were combined in a well of a microtiter plate and incubated for 2 hours at 25° C. The composition of the reaction buffer was 100 mM HEPES pH 7.5, 5 mM MgCl2, 0.01% Triton-X 100, 0.1% Bovine Serum Albumin, and 1% DMSO. Enzyme concentration in the final reaction mixture was 0.5 nM while peptide substrate was at 1 uM. ATP was used at 1×Km concentration corresponding to 2 uM. Serial dilutions (3-fold steps) of compounds were prepared in DMSO. At the end of the incubation, the reaction was stopped by the addition of 20 mM EDTA. Substrate and product (i.e. phosphorylated substrate) were separated electrophoretically and both were quantified by fluorescence intensity using the microfluidics-based LabChip 3000 Drug Discovery System from Caliper Life Sciences. Conversion for each well was calculated and plotted as function of test compound concentration. IC50 value was determined by fitting the data to a 4-parameter logistic model by non-linear regression (XLfit model 205). In every assay, Staurosporine was tested in the same manner as reference compound. Selectivity for JAK3 was determined using commercially available kinase cross-screening services (DiscoveRx, San Diego, Calif.).

Sequence of recombinant JAK3 (catalytic domain, aa 781-1124) (P52333 781-1124): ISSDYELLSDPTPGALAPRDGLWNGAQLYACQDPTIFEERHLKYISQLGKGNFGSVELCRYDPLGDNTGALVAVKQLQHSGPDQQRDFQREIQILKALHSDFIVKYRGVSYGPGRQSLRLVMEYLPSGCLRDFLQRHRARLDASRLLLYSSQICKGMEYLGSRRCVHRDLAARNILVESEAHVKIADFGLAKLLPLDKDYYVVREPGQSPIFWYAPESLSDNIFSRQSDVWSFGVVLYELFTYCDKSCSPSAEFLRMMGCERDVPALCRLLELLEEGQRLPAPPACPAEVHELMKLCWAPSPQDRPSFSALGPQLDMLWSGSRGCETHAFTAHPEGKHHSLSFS

| IC50 | SMILES |
| --- | --- |
| 210 nM | CN(C)C(=O)C(C#N)=Cc1ccc(Nc2cnc3[nH]cc(C(=O)C(C)(C)C)c3n2)s1 [compound 73, 2-cyano-N,N-dimethyl-3-(5-((7-pivaloyl-5H-pyrrolo[2,3-b]pyrazin-2-yl)amino)thiophen-2-yl)acrylamide] |
| 1 nM | CC(C)(C)C(=O)c1c[nH]c2ncc(Nc3ccc(C=C(C#N)C(=O)N4CCCCC4)cc3)nc12 [compound 76, 2-(piperidine-1-carbonyl)-3-(4-((7-pivaloyl-5H-pyrrolo[2,3-b]pyrazin-2-yl)amino)phenyl)-acrylonitrile] |
| 1 nM | CCNC(=O)C(C#N)=Cc1ccc(Nc2cnc3[nH]cc(C(=O)C(C)(C)C)c3n2)cc1 [compound 77, 2-cyano-3-(4-((7-pivaloyl-5H-pyrrolo[2,3-b]pyrazin-2-yl)amino)phenyl)-N-ethylacrylamide] |
| 33.5 nM | CCN1C(=O)SC(=Cc2ccc(Nc3cnc4[nH]cc(C(=O)C(C)(C)C)c4n3)cc2)C1=O [compound 78, 3-ethyl-5-(4-((7-pivaloyl-5H-pyrrolo[2,3-b]pyrazin-2-yl)amino)benzylidene)thiazolidine-2,4-dione] |
| 100 nM | CCOC(=O)C(C#N)=Cc1ccc(Nc2cnc3[nH]cc(C(=O)C(C)(C)C)c3n2)cc1 [compound 79, ethyl 2-cyano-3-(4-((7-pivaloyl-5H-pyrrolo[2,3-b]-pyrazin-2-yl)amino)phenyl)acrylate] |
| 0.7 nM | CC(C)NC(=O)c1c[nH]c2ncc(Nc3ccc(C=C(C#N)C(=O)N4CCOCC4)cc3)nc12 [compound 80, N-(isopropyl)-2-((4-(2-cyano-3-morpholino-3-oxoprop-1-en-1-yl)phenyl)amino)-5H-pyrrolo[2,3-b]pyrazine-7-carboxamide] |
| 0.6 nM | CC(C)(C)C(=O)c1c[nH]c2ncc(Nc3ccc(C=C(C#N)S(C)(=O)=O)cc3)nc12 [compound 81, 2-(methylsulfonyl)-3-(4-((7-pivaloyl-5H-pyrrolo[2,3-b]pyrazin-2-yl)amino)phenyl)-acrylonitrile] |
| 38.3 nM | CC(C)(C)C(=O)c1c[nH]c2ncc(Nc3ccc(C=C(C#N)c4nccs4)cc3)nc12 [compound 82, 3-(4-((7-pivaloyl-5H-pyrrolo[2,3-b]pyrazin-2-yl)amino)phenyl)-2-(thiazol-2-yl)acrylonitrile] |
| 0.2 nM | CC(C)NC(=O)c1c[nH]c2ncc(Nc3ccc(C=C(C#N)C(=O)N4CCNCC4)cc3)nc12 [compound 83, 2-((4-(2-cyano-3-oxo-3-(piperazin-1-yl)prop-1-en-1-yl)phenyl)amino)-N-isopropyl-5H-pyrrolo[2,3-b]pyrazine-7-carboxamide] |
| 5.5 nM | CN(C(=O)C(C#N)=Cc1ccc(Nc2cnc3[nH]cc(C(=O)C(C)(C)C)c3n2)cc1)c1ccccc1 [compound 85, 2-cyano-N-methyl-N-phenyl-3-(4-((7-pivaloyl-5H-pyrrolo[2,3-b]pyrazin-2-yl)amino)phenyl)-acrylamide] |
| 3 nM | CN(C)CCN1C(=O)SC(=Cc2ccc(Nc3cnc4[nH]cc(C(=O)C(C)(C)C)c4n3)cc2)C1=O [compound 88, 3-(2-(dimethylamino)ethyl)-5-(4-((7-pivaloyl-5H-pyrrolo[2,3-b]pyrazin-2-yl)amino)-benzylidene)thiazolidine-2,4-dione] |
| 3 nM | CC(C)(C)C(=O)c1c[nH]c2ncc(Nc3ccc(C=C4SC(=O)N(CCN)C4=O)cc3)nc12 [compound 89, 3-(2-aminoethyl)-5-(4-((7-pivaloyl-5H-pyrrolo[2,3-b]pyrazin-2-yl)amino)benzylidene)thiazolidine-2,4-dione] |
| 680 nM | CN(C)C(=O)C(C#N)=Cc1ccc(-c2cnc3[nH]cc(C(=O)C(C)(C)C)c3n2)cc1 [compound 96, 2-cyano-N,N-dimethyl-3-(4-(7-pivaloyl-5H-pyrrolo[2,3-b]pyrazin-2-yl)phenyl)acrylamide] |
| 104 nM | CN(C)C(=O)C(C#N)=Cc1cccc(-c2cnc3[nH]cc(C(=O)C(C)(C)C)c3n2)c1 [compound 97, 2-cyano-N,N-dimethyl-3-(3-(7-pivaloyl-5H-pyrrolo[2,3-b]pyrazin-2-yl)phenyl)acrylamide] |
| > 5000 nM | CN(C)C(=O)C(C#N)=Cc1cccc(Oc2cnc3[nH]cc(C(=O)C(C)(C)C)c3n2)c1 [compound 100, 2-cyano-N,N-dimethyl-3-(3-((7-pivaloyl-5H-pyrrolo[2,3-b]pyrazin-2-yl)oxy)phenyl)acrylamide] |
| 345 nM | CC(C)(C)C(=O)c1c[nH]c2ncc(-c3cccc(NC(=O)C(C#N)=CC4CC4)c3)nc12 [compound 102, 2-cyano-3-cyclopropyl-N-(3-(7-pivaloyl-5H-pyrrolo[2,3-b]pyrazin-2-yl)phenyl)acrylamide] |
